Experimental data: patent US5389621A, “Method of enhancing the anticoagulant effects of aspirin using salicylamide” (University of Medicine and Dentistry of New Jersey, priority 1994, dated 1995)
Entries after “also recorded” stand apart in the source; their conditions may differ. Read-outs that look alike come from different tables or passages of the source. Each block holds one molecule with its values, some of them ahead of it.

What was measured:
[1] = Tissue distribution of 14C-salicylamide (parent) by HPLC; type: in vivo, male Sprague-Dawley rats; conditions: for concentration at 1.5 h: rat
Text: Forty-eight rats were divided into two groups.
The rats were anesthetized by light diethyl ether inhalation.

[2] = Tissue distribution of aspirin and its metabolites (SA, SUA, GA, DBA) by HPLC after 14C-aspirin; conditions: for Aspirin level in tissues studied (plasma, lung, liver, heart, kidney): 1.5 hours after 14C-ASA alone or with SAM, low and high doses
Experimental: (§1) Male adult Sprague-Dawley rats (300-325 gm) obtained from Charles River Breeding Laboratory, N. Wilmington, Mass. were quarantined for one week. All animals were identified by ear punching. Food and water were provided ad libitum. The animals were maintained on rodent lab chow diet in a controlled environment with 50% humidity and 12 hour light/dark cycle.
Forty-eight rats were divided into two groups. The first group of rats was administered ASA, SAM or their combination in a dose approximately equal (w/w) to that in the commercially available combinations, e.g., BC® formula, when administered to humans, i.e., 10 and 3 mg/kg of ASA and SAM, respectively. The second group was administered double the dosage received by the first group.
The rats were anesthetized by light diethyl ether inhalation. A blood sample of nearly 3 ml was collected by cardiac puncture 1.5 hours after oral administration. The blood was transferred to chilled polyethylene tubes containing 30 μl of 50% (w/w) potassium fluoride to prevent hydrolysis of ASA. A 300 μl aliquot was pipetted in a scintillation vial to study the distribution in whole blood. The rest of the collected blood was immediately centrifuged at 1800×g for 10 minutes at 4° C. and the plasma was decanted. 100 μl of the plasma were pipetted in a scintillation vial for measurement of the total radioactivity and the rest of the plasma was stored immediately at -70° C. for later study of the distribution of the metabolites.
Liver, kidney, plasma, lung and heart were stored at -70° C. for later study of their content of the metabolites of aspirin or salicylamide using an HPLC method. Liver, kidney and plasma of the rats treated with aspirin or the combination were also investigated for the presence of salicyl glucuronide conjugates by using HPLC and acid hydrolysis assays.
A Waters HPLC system (Waters Chromatography, Division of Millipore, Milford, Mass.) was used, consisting of: Waters 680 automated gradient controller, two model 510 pumps, model U6K universal liquid chromatography injector, Lambda Max model 481 variable wavelength UV/Vis absorbance detector, Data Module 730, 3.9 mm×15 cm NOVA-PAK 4 μm silica packing steel column, C-18 Guard-Pak, Hamilton syringes of 10, 100, and 250 μl capacity (Hamilton Co., Reno, Nev.), and Milli-Q(tm) Millipore water filtration system #CDOFO 1205 (Waters, Division of Millipore, Milford, Mass.).
1--For the analysis of ASA and its metabolites in tissues: the mobile phase was 2% acetic acid/methanol, 95:5, at a flow rate of 1.4 ml/minute.
The detection wavelength was 240 nm and the sensitivity of the detector was 0.02 AUFS (Absorbance Unit Full Scale).

[3] = Excretion study: effect of salicylamide on aspirin excretion; conditions: for Rate order of excretion of metabolites: first 24 hours, urine
Experimental: as §1
The dose of radiolabeled ASA administered was 5 μCi per rat. Rats were fasted overnight prior to the administration of the treatments.
Rats were gavaged with the treatment solution and were immediately placed in Silverman metabolic glass chambers (Bioserv, Inc., Frenchtown, N.J.), one rat per chamber. Rats were administered water ad libitum while food was withheld until 1.5 hours following treatment administration. Urine was collected at 8, 16, 24, 48 and 72 hours. Feces were collected in preweighed clean plastic cups at 24, 48 and 72 hours after dosing. The expired air was channeled through a series of activated charcoal tubes to trap any radiolabeled compound that is excreted via the lungs and the tubes were collected at the end of the study 72 hours after dosing.
The urine samples were collected and the volume was measured using a 10 ml graduated glass pipette. The urine was shaken, and 100 μl of each urine sample were pipetted in a scintillation vial with 15 ml of Aquasol-2 for radioactivity assessment. The rest of the urine was stored at -70° C. for later analysis of its content of salicylic acid (SA) and salicyluric acid (SUA), the major metabolites of ASA.
Fecal weight was determined for each time-point collection and deionized water was added to feces in a ratio of feces:water, 1:3 (w/w).
The activated charcoal was carefully emptied in small glass tubes and extracted with 1 ml of methanol and the tubes were then centrifuged at 1800×g for 15 minutes.
Urine was further studied for its content of the ASA metabolites, namely SA and SUA. Waters HPLC system (Waters Chromatography, Division of Millipore, Milford, Mass.) with 3.9 mm×15 cm NOVA-PAK 4 μm silica packing steel column, C-18 Guard-Pak, and Milli-Q(tm) Millipore water filtration system were used for the characterization of SA and SUA. An isocratic methodology was developed and the separation was optimal by a mobile phase of 2% acetic acid/methanol, 70:30, at a flow rate of 1 ml/min. and a detection wavelength of 240 nm. One hundred μl of the collected 8 and 16 hour urine samples were diluted with 4 ml of methanol/mobile phase mixture (1:1) while the dilution was only with 2 ml for the 24, 48 and 72 hour urine samples.
The fractions under the specific retentiontimes of SA and SUA were collected in scintillation vials containing 15 ml of the scintillation cocktail and the radioactivity content was counted. The retention times of SA and SUA were determined by injection of authentic standard solution. Corrections have been made for the quenching effect of the mobile phase.
Student-t test and one way analysis of variance (ANOVA) followed by Scheffe multiple range test were used where appropriate. The accepted level of significance of difference was p<0.05.

[4] = oral 14C-ASA 10 mg/kg, alone or with SAM 3 mg/kg
[5] = rat, in vivo, po, 10 mg/kg, 72 h

Compound: CC(=O)Oc1ccccc1C(=O)O [ASA, acetylsalicylic acid]
Change of 14C-SAM in lung by ASA ([1]; low and high dose combinations): significantly lower
Change of 14C-SAM in kidney by ASA ([1]; low dose combination): significantly reduced
Increase of 14C-SAM in liver with ASA ([1]; lower dose combination): about 50%
Aspirin level in tissues studied (plasma, lung, liver, heart, kidney) [2]: not detected in the plasma
Aspirin level in tissues studied (plasma, lung, liver, heart, kidney) ([2]; listed as aspirin): not detected
Rate order of excretion of metabolites [3]: first-order rate fashion

Parent SAM in plasma ([1]; 1.5 hours, 14C-SAM alone and with ASA, low and high doses): not detected
Change of 14C-SA in kidney (low and high dose) and liver (high dose) ([2]; SAM with 14C-ASA): not markedly altered
Urinary SA, SUA and SA glucuronide, 0-8 hours ([3]; ASA coadministered with SAM vs ASA alone): higher in the urine
Effect on urinary 14C, 0-8 hour period ([3]; SAM coadministered with 14C-ASA): increased
Effect on urinary 14C, 8-28 hour period (so in the source) ([3]; SAM coadministered with 14C-ASA vs 14C-ASA alone): significantly decreased
Urinary content of SA, SUA and SA glucuronide after 0-8 hours ([3]; SAM coadministration vs 14C-ASA alone): decreased
Compound: NC(=O)c1ccccc1O [SAM, Salicylamide]
Effect on pattern of excretion of ASA metabolites in urine ([3]; SAM with 14C-ASA, low doses): did not affect the pattern of excretion of ASA metabolites in urine

Compound: CC(=O)Oc1ccccc1[14C](=O)O [^14 C-ASA]
SUA in lung, heart, liver and plasma ([2]; 14C-ASA alone and with SAM): not detected; also recorded: The liver had no detectable level of SUA
Difference in kidney 14C-SUA with or without SAM ([2]; low or high dose): no significant difference
Gentisic acid and 2,3-dihydroxybenzoic acid in tissues ([2]; low or high dose): not detected
14C radioactivity recovered in urine ([3]; 14C-ASA alone or in combination with SAM): Almost all the ^14 C radioactivity
SA share of the radioactivity excreted in urine ([3]; 14C-ASA alone or with SAM): more than 50%
SUA share of the metabolites in urine ([3]; 14C-ASA alone or with SAM): approximately 15%
14C in expired air ([3]; 14C-ASA or 14C-CO2): No radioactivity was found
Absorption from the gut ([3]; 14C-ASA oral): essentially a complete absorption
Rate order of excretion of metabolites [3]: first-order rate pattern
Urinary excretion of 14C, 0-72 hr [3, 4]: 3055 ± 23 μg ^14 C
Urinary excretion of 14C, 8-16 hr [3, 4]: 619 ± 124 μg ^14 C
Urinary excretion of 14C, 16-24 hr [3, 4]: 92 ± 26 μg ^14 C
Urinary excretion of 14C, 24-48 hr [3, 4]: 60 ± 19 μg ^14 C
Urinary excretion of 14C, 48-72 hr [3, 4]: 11 ± 3 μg ^14 C
Urinary excretion of 14C, 0-8 hr ([3]; oral 14C-ASA 10 mg/kg, alone or with SAM 3 mg/kg, mean ± SE, n=6): 2227 ± 138 μg ^14 C
Bioavailability of 14C ([3]; rat, in vivo, po, 10 mg/kg): 100%
14C excreted in feces [3, 5]: 1.0 ± 0.1 percentage of the dose
14C excreted in urine [3, 5]: 100.2 ± 0.8 percentage of the dose
Recovery of the administered dose [3, 5]: 100%
Total Recovery of 14C [3, 5]: 101.7 ± 0.8 percentage of the dose

14C-SAM in heart ([1]; 14C-SAM 3 mg/kg with or without ASA 10 mg/kg): not detected
14C-SAM in heart ([1]; 1.5 hours, 14C-SAM 6 mg/kg alone or 14C-SAM/ASA 6/20 mg/kg): detected in the heart
concentration at 1.5 h ([1]; heart, oral 14C-SAM 6 mg/kg, alone or with ASA 20 mg/kg, ND = not detected, read-out: 14C-salicylamide in heart): 2.9 ± 1.7 ng/g
concentration at 1.5 h ([1]; kidney, oral 14C-SAM 3 mg/kg, alone or with ASA 10 mg/kg, read-out: 14C-salicylamide in kidney): 152 ± 13.4 ng/g
concentration at 1.5 h ([1]; kidney, oral 14C-SAM 6 mg/kg, alone or with ASA 20 mg/kg, read-out: 14C-salicylamide in kidney): 181 ± 18.3 ng/g
concentration at 1.5 h ([1]; liver, oral 14C-SAM 3 mg/kg, alone or with ASA 10 mg/kg, read-out: 14C-salicylamide in liver): 16.6 ± 5.3 ng/g
concentration at 1.5 h ([1]; liver, oral 14C-SAM 6 mg/kg, alone or with ASA 20 mg/kg, read-out: 14C-salicylamide in liver): 29.4 ± 3.3 ng/g
concentration at 1.5 h ([1]; lung, oral 14C-SAM 3 mg/kg, alone or with ASA 10 mg/kg, read-out: 14C-salicylamide in lung): 17.1 ± 3 ng/g
concentration at 1.5 h ([1]; lung, oral 14C-SAM 6 mg/kg, alone or with ASA 20 mg/kg, read-out: 14C-salicylamide in lung): 41.9 ± 3.9 ng/g
Compound: N[14C](=O)c1ccccc1O [^14 C-SAM]
